Results taken from DBAASP.
Values after ≈ are worked out from the molar mass of the structure shown. Values joined by “and” are separate entries in the source; they are usually repeats but may differ in a detail not shown here. Equal entries are not always repeated. One block for each compound: values may come before it.

Legend:
Assay in all cases: ≥ marks a high value that may be exact or a test limit, other limits are often not marked, values filed in µg/mL are converted to µM
[1] = tested on: Escherichia coli CMCC 44102
[2] = tested on: Pseudomonas aeruginosa ATCC 21630
[3] = tested on: Salmonella enterica subsp. enterica serovar Pullorum C79-13
[4] = tested on: Enterococcus faecalis ATCC 29212
Escherichia coli 078 = tested on: Escherichia coli 078
[5] = tested on: Escherichia coli CVCC 1515
[6] = tested on: Salmonella enterica subsp. enterica serovar Typhimurium C77-31
[7] = tested on: Staphylococcus epidermidis ATCC 12228
[8] = tested on: Staphylococcus aureus ATCC 29213
Escherichia coli K88 = tested on: Escherichia coli K88
[9] = tested on: Pseudomonas aeruginosa ATCC 10419
[10] = tested on: Staphylococcus aureus ATCC 25923
Escherichia coli ER2566 = tested on: Escherichia coli ER2566
[11] = tested on: Salmonella enterica subsp. enterica serovar Typhimurium ATCC 14028
[12] = tested on: Pseudomonas aeruginosa ATCC 21625
Escherichia coli UB1005 = tested on: Escherichia coli UB1005
[13] = tested on: Escherichia coli ATCC 25922
[14] = tested on: Pseudomonas aeruginosa ATCC 27853
[15] = tested on: Bacillus subtilis ATCC 11060
Enterococcus faecalis A4 = tested on: Enterococcus faecalis A4
[16] = tested on: Pseudomonas aeruginosa PAO1
[17] = tested on: Enterococcus faecalis 1F-1
[18] = tested on: Bacillus subtilis ATCC 6051
[19] = tested on: Proteus mirabilis ATCC 35659
Staphylococcus aureus MR = tested on: Staphylococcus aureus MR
[20] = tested on: Enterococcus faecium 5F-10
[21] = tested on: Bacillus cereus ATCC 14579
[22] = tested on: Bacillus licheniformis ATCC 14580
[23] = tested on: Enterococcus faecium 4W-9
[24] = tested on: Bacillus amyloliquefaciens ATCC 23842
[25] = tested on: Salmonella enterica ATCC H9812
[26] = tested on: Staphylococcus aureus 215
[27] = tested on: Pseudomonas aeruginosa ATCC 15692
[28] = tested on: Staphylococcus aureus ATCC 1717
Citrobacter freundii = tested on: Citrobacter freundii
[29] = tested on: Salmonella typhimurium PY1
Enterobacter cloacae = tested on: Enterobacter cloacae
Enterococcus faecalis = tested on: Enterococcus faecalis
Escherichia coli NDM-1 = tested on: Escherichia coli NDM-1
[30] = tested on: Klebsiella pneumoniae NDM-1
Escherichia coli O157:H7 = tested on: Escherichia coli O157:H7
Morganella morganii = tested on: Morganella morganii
[31] = tested on: Bacillus subtilis ATCC 23857
Klebsiella oxytoca = tested on: Klebsiella oxytoca
[32] = tested on: Bacillus subtilis KCTC 2217
[33] = tested on: Acinetobacter baumannii KCTC 2508
[34] = tested on: Escherichia coli KCTC 1682
[35] = tested on: Staphylococcus aureus CCARM 3095
[36] = tested on: Bacillus subtilis KCTC 3068
[37] = tested on: Enterococcus faecium ATCC 51559
[38] = tested on: Staphylococcus epidermidis KCTC 1917
[39] = tested on: Salmonella typhimurium KCTC 1926
[40] = tested on: Pseudomonas aeruginosa KCTC 1637
[41] = tested on: Staphylococcus aureus KCTC 1621
[42] = tested on: Pseudomonas aeruginosa CCARM 2095
[43] = tested on: Staphylococcus aureus CCARM 3090
[44] = tested on: Staphylococcus aureus CCARM 3089

MIC [1]: 1.01 µM (≈ 3.3 µg/mL)
MIC [2]: 7.99 µM (≈ 26.1 µg/mL)
MIC [3]: 4.01 µM (≈ 13.1 µg/mL)
MIC [4]: 16 µM (≈ 52.2 µg/mL)
MIC (Escherichia coli 078): 7.99 µM (≈ 26.1 µg/mL)
MIC [5]: 7.99 µM (≈ 26.1 µg/mL)
MIC [6]: 4.01 µM (≈ 13.1 µg/mL)
MIC [7]: 16 µM (≈ 52.2 µg/mL)
MIC [8]: 1.99 µM (≈ 6.5 µg/mL)
MIC (Escherichia coli K88): 1.99 µM (≈ 6.5 µg/mL)
MIC [9]: 4.01 µM (≈ 13.1 µg/mL)
MIC [10]: 1.01 µM (≈ 3.3 µg/mL)
MIC (Escherichia coli ER2566): 0.49 µM (≈ 1.6 µg/mL)
MIC [11]: 4.01 µM (≈ 13.1 µg/mL)
MIC [12]: 1.99 µM (≈ 6.5 µg/mL)
MIC (Escherichia coli UB1005): 1.01 µM (≈ 3.3 µg/mL)
MIC [13]: 1.99 µM and 3.83 µM
MIC [14]: 1.99 µM (≈ 6.5 µg/mL)
MIC [15]: 16 µM (≈ 52.2 µg/mL)
Structure (SMILES): CC[C@H](C)[C@H](NC(=O)[C@H](CCCCN)NC(=O)[C@H](CCCN=C(N)N)NC(=O)[C@H](CC(C)C)NC(=O)[C@H](Cc1ccccc1)NC(=O)[C@H](CCCN=C(N)N)NC(=O)CNC(=O)[C@H](Cc1ccccc1)NC(=O)[C@@H](N)CCCN=C(N)N)C(=O)N[C@@H](CCCN=C(N)N)C(=O)N[C@@H](CCCN=C(N)N)C(=O)N[C@@H](Cc1ccccc1)C(=O)N[C@@H](CCCN=C(N)N)C(=O)N1CCC[C@H]1C(=O)N[C@@H](CCCCN)C(=O)N[C@H](C(=O)N[C@H](C(=O)N[C@H](C(=O)N[C@H](C(=O)N[C@H](C(=O)N[C@@H](CCC(N)=O)C(=O)NCC(=O)N[C@@H](CO)C(=O)N[C@@H](C)C(=O)N[C@@H](CCCN=C(N)N)C(=O)N[C@@H](Cc1ccccc1)C(=O)NCC(N)=O)[C@@H](C)CC)[C@@H](C)O)[C@@H](C)CC)[C@@H](C)O)C(C)C [RFGRFLRKIRRFRPKVTITIQGSARFG]

MIC [10]: 1.56 µM and > 0.78 µM
MIC [32]: 1.56 µM (≈ 2.26 µg/mL)
MIC [33]: 25 µM (≈ 36.2 µg/mL)
Structure (SMILES): CC(C)C[C@H](NC(=O)[C@H](CCCCN)NC(=O)[C@H](CCCCN)NC(=O)[C@H](CC(C)C)NC(=O)[C@H](CC(C)C)NC(=O)[C@H](CCCCN)NC(=O)[C@H](CCCCN)NC(=O)[C@H](CC(C)C)NC(=O)[C@H](CC(C)C)NC(=O)[C@@H]1CCCN1C(=O)[C@H](CCCCN)NC(=O)[C@@H](N)CCCCN)C(N)=O [KKPLLKKLLKKL]

MIC [34]: 6.3 µM (≈ 15.4 µg/mL)
MIC [35]: 25 µM (≈ 61.3 µg/mL)
MIC [36]: 12.5 µM (≈ 30.6 µg/mL)
MIC [37]: ≥ 50 µM
MIC [38]: 6.3 µM (≈ 15.4 µg/mL)
MIC [39]: 6.3 µM (≈ 15.4 µg/mL)
MIC [40]: 6.3 µM (≈ 15.4 µg/mL)
MIC [41]: 12.5 µM (≈ 30.6 µg/mL)
MIC [42]: 12.5 µM (≈ 30.6 µg/mL)
MIC [43]: ≥ 50 µM
MIC [44]: 25 µM (≈ 61.3 µg/mL)
Structure (SMILES): CC[C@H](C)[C@H](NC(=O)[C@@H](NC(=O)[C@H](Cc1cnc[nH]1)NC(=O)[C@H](CCCN=C(N)N)NC(=O)[C@H](C)NC(=O)[C@H](CCCN=C(N)N)NC(=O)[C@H](CC(C)C)NC(=O)[C@H](CO)NC(=O)[C@H](C)NC(=O)[C@H](CO)NC(=O)[C@H](CC(C)C)NC(=O)[C@@H](N)CC(N)=O)[C@@H](C)O)C(=O)N1CCC[C@H]1C(=O)N[C@@H](CCC(N)=O)C(=O)N[C@@H](CO)C(=O)N[C@@H](CCCN=C(N)N)C(=O)N[C@@H](CCCCN)C(=O)N[C@@H](Cc1ccccc1)C(=O)NCC(=O)N[C@@H](CCCN=C(N)N)C(=O)N[C@@H](CCCN=C(N)N)C(=O)O [NLSASLRARHTIPQSRKFGRR]

More lines, now with the values behind:

Structure (SMILES): CC(C)C[C@H](NC(=O)[C@H](CC(C)C)NC(=O)[C@@H](N)CCC(=O)O)C(=O)N[C@@H](CO)C(=O)N[C@@H](CCCN=C(N)N)C(=O)N[C@H](C(=O)N[C@@H](CC(=O)O)C(=O)O)C(C)C [ELLSRVD]
MIC (Enterococcus faecalis A4): ≥ 154 µM
MIC [16]: > 154 µM
MIC [17]: ≥ 154 µM
MIC [18]: ≥ 77 µM
MIC [19]: ≥ 154 µM
MIC (Staphylococcus aureus MR): 3.4 µM (≈ 2.83 µg/mL)
MIC [8]: 4.81 µM (≈ 4 µg/mL)
MIC [20]: ≥ 154 µM
MIC [21]: ≥ 77 µM
MIC [22]: ≥ 77 µM
MIC [23]: ≥ 154 µM
MIC [13]: > 154 µM
MIC [24]: ≥ 77 µM
MIC [25]: ≥ 154 µM
MIC [26]: 4.81 µM (≈ 4 µg/mL)

Structure (SMILES): CC[C@H](C)[C@H](NC(=O)CN)C(=O)N[C@H](C(=O)N[C@@H](C)C(=O)NCC(=O)N[C@H](C(=O)N[C@H](C(=O)N[C@H](C(=O)N[C@@H](CCCCN)C(=O)N[C@H](C(=O)N[C@@H](CCCCN)C(=O)N[C@@H](CCCCN)C(N)=O)[C@@H](C)CC)[C@@H](C)CC)[C@@H](C)CC)[C@@H](C)CC)[C@@H](C)CC [GIIAGIIIKIKK]
MIC [27]: ≥ 64 µM
MIC [28]: ≥ 128 µM
MIC (Citrobacter freundii): 8 µM (≈ 10.1 µg/mL)
MIC [29]: ≥ 64 µM
MIC (Enterobacter cloacae): 22.6 µM (≈ 28.6 µg/mL)
MIC (Enterococcus faecalis): 16 µM (≈ 20.3 µg/mL)
MIC (Escherichia coli NDM-1): 16 µM (≈ 20.3 µg/mL)
MIC [30]: 22.6 µM (≈ 28.6 µg/mL)
MIC (Escherichia coli O157:H7): ≥ 32 µM
MIC (Morganella morganii): ≥ 128 µM
MIC [31]: 8 µM (≈ 10.1 µg/mL)
MIC (Klebsiella oxytoca): 16 µM (≈ 20.3 µg/mL)
